Converted amounts (≈) assume the structure as drawn.
Legend:
Leptosphaeria nodorum = assay: Activity against wheat leafspot (LN), Example 53(f); format: in vivo; details: therapeutic foliar spray, 1000 ppm
Description: The test is a direct therapeutic one, using a foliar spray. Leaves of wheat plants (cv Norman), at the single leaf stage, are inoculated by spraying with an aqueous suspension containing 1×10^6 spores/ml. The inoculated plants are kept for 24 hours in a high humidity compartment prior to treatment. The plants are sprayed with a solution of the test compound at a dosage of 1000 ppm using an automated sprayline as described under (a). After drying, the plants are kept for 6-8 days at 22° C. and moderate humidity, followed by assessment. Assessment is based on the density of lesions per leaf compared with that on leaves of control plants. The extent of disease control in all the above tests is expressed as a rating compared with either an untreated control or a diluent-sprayed-control, according to the criteria: […]

[1] = tested on: Pseudocercosporella herpotrichoides; assay: Activity against wheat eyespot in-vitro (PHI), Example 53(j); format: cell-based; details: 50 ppm, 12 days at 20° C.
Description: This test measures the in vitro activity of compounds against the fungus causing wheat eyespot. The test compound is dissolved or suspended in acetone and is added into 4 ml aliquots of half strength Potato Dextrose Broth dispensed in 25-compartment petri dishes to give a final concentration of 50 ppm compound and 2.5% acetone. Each compartment is inoculated with a 6 mm diameter plug of agar/mycelium taken from a 14 day old culture of P. herpotrichoides. Plates are incubated at 20° C. for 12 days until the assessment of mycelial growth. The extent of disease control in all the above tests is expressed as a rating compared with either an untreated control or a diluent-sprayed-control, according to the criteria: […]

Alternaria solani [2] = assay: MIC by serial dilution, Example 55, Alternaria solani; format: cell-based; details: microtitre plates, 20° C., 6-8 days
Description: (§1) The MIC (Minimum Inhibition Concentration)-values were determined by serial dilution tests using 48-well microtitre plates. The dilution of the test compounds in the nutrient solution and the distribution to the wells were carried out by a TECAN RSP 5000 robotic sample processor.
(§2) For preparation of the nutrient solution, V8 juice (Trade Mark) was neutralised with calcium carbonate and centrifuged. The supernatant was diluted with distilled water (1:5) to the final concentration.
(§3) The fungi (Alternaria solani, Botrytis cinerea, Pseudocercosporella herpotrichoides, Micronectriella nivalis, Gaeumannomyces graminis) were added into the wells as a droplet of spore suspension. The microtitre plates were then incubated at 20° C. for 6-8 days. The MIC-value, which was defined to be the lowest concentration in the dilution series without mycelial growth, was determined by visual inspection of the plates.

Botrytis cinerea [3] = assay: MIC by serial dilution, Example 55, Botrytis cinerea; format: cell-based; details: microtitre plates, 20° C., 6-8 days
Description: as §1, §2, §3

[4] = tested on: Pseudocercosporella herpotrichoides; assay: MIC by serial dilution, Example 55, Pseudocercosporella herpotrichoides; format: cell-based; details: Oculimacula yallundae; microtitre plates, 20° C., 6-8 days
Description: as §1, §2, §3

Micronectriella nivalis = assay: MIC by serial dilution, Example 55, Micronectriella nivalis; format: cell-based; details: microtitre plates, 20° C., 6-8 days
Description: as §1, §2, §3

Gaeumannomyces graminis = assay: MIC by serial dilution, Example 55, Gaeumannomyces graminis; format: cell-based; details: microtitre plates, 20° C., 6-8 days
Description: as §1, §2, §3

Alternaria solani [5] = assay: MIC in the serial dilution test, Example 56, Alternaria solani; format: cell-based; details: microtiter serial dilution, 6-12 days
Description: (§4) The serial dilution test was carried out using Microtiter test with 24 or 48 wells per plate. The test compounds were used a 1000 μg/ml aqueous stock suspension containing 20% acetone which was then sterile filtered in a 0.2μ filter. The dilution of the sterile fungicide suspension with the nutrient solution and the subsequent pipetting into the different wells was carried out using a TECAN RSP 5000 Robotic Sample Processor. The concentrations tested ranged from 100 μg/ml down to 0.05 μg/ml. 12 Dilution steps were made. The nutrient solution was chosen according to the nutrient requirements of the pathogen. The inoculum was added as a droplet (50 μl) of a spore suspension (5×10^8 /ml) into the wells. After 6-12 days incubation at suitable temperatures, the MIC value was determined by visual estimation. The lowest concentration in the dilution row without mycelial growth was defined as the MIC value.

Botrytis cinerea [6] = assay: MIC in the serial dilution test, Example 56, Botrytis cinerea; format: cell-based; details: microtiter serial dilution, 6-12 days
Description: as §4

Rhizoctonia solani = assay: MIC in the serial dilution test, Example 56, Rhizoctonia solani; format: cell-based; details: microtiter serial dilution, 6-12 days
Description: as §4

Puccinia arachidis = assay: Field pot test with Puccinia arachidis on peanuts; format: in vivo; details: topical, 456 h, 500 μg/ml spray, 1000 l/ha, 19 days after treatment, Abbott formula, read-out: % efficacy Puccinia arachidis
Description: 15 seeds of peanuts were sown in pots filled with a soil substrate. When the plants have developed 4 true leaves the fungicides and the test compounds were applied using a hand sprayer. The test compounds were applied at a concentration of 500 μg/ml in a […] containing 10% acetone and 0.05% Triton X 155 in water. The total amount of […] corresponded to 1000 l/ha. Six replicates per treatment were used. 2 Days after treatment the pots were exposed to peanut plants in the field on which the fungus, Puccinia arachidis, had formed sporulating pustules on the leaves. The assessment was carried out 19 days after treatment by estimating the percentage of infected leaf area. The % efficacy was calculated using the Abbott formula.

Cercospora arachidicola = assay: Field pot test with Cercospora arachidicola on peanuts; format: in vivo; details: Mycosphaerella arachidis, topical, 360 h, 500 μg/ml spray, 1000 l/ha, 15 days after treatment, Abbott formula, read-out: % efficacy Cercospora arachidicola
Description: 15 Seeds of peanuts were sown in pots filled with a soil substrate. When the plants have developed 4 true leaves (approx. 12-14 days after seeding) the fungicides and the test compounds were applied using a hand sprayer. The test compounds were applied at a concentration of 500 μg/ml in a […] containing 10% acetone and 0.05% Triton X 155 in water. The total amount of […] corresponded to 1000 l/ha. Six replicates (pots) per treatment were used. 2 days after treatment the pots were exposed to peanut plants in the field on which the fungus, Cercospora arachidicola, had formed sporulating lesions. The assessment was carried out 15 days after treatment by estimating the percentage of infected leaf area. The % efficacy was calculated using the Abbott formula.

Row | SMILES | Fungicidal Activity PHI (disease control rating) [1] | MIC [4] [µg/mL] | MIC (Micronectriella nivalis) [µg/mL] | MIC (Gaeumannomyces graminis) [µg/mL] | also measured
1 | CCOc1cccc(-c2c(Cl)nc3ncnn3c2Cl)c1OCC [Example 24] | 2 (greater than 80% disease control) |  |  |  | Fungicidal Activity LN (disease control rating) (Leptosphaeria nodorum): 1 (about 50-80% disease control)
2 | Fc1cccc(-c2c(Br)nc3ncnn3c2Br)c1 [Example 43] |  |  |  |  | MIC (Alternaria solani [2]): > 100 µg/mL; MIC (Botrytis cinerea [3]): > 100 µg/mL
3 | Clc1nc2ncnn2c(Cl)c1-c1ccc(-c2ccccc2)cc1 [Example 13] | 2 (greater than 80% disease control) | > 100 | 6.25 (≈ 18.3 µM) | 0.39 (≈ 1.14 µM) | 
4 | Clc1nc2ncnn2c(Cl)c1-c1ccc2ccccc2c1 [Example 10] | 2 (greater than 80% disease control) |  |  |  | 
5 | CC(C)(C)c1ccc(-c2c(Cl)nc3ncnn3c2Cl)cc1 [Example 36] |  | 3.13 (≈ 9.74 µM) | 0.39 (≈ 1.21 µM) | 0.78 (≈ 2.43 µM) | 
6 | Cc1ccc(-c2c(Cl)nc3ncnn3c2Cl)cc1C [Example 31] |  | 12.5 (≈ 42.6 µM) | 3.13 (≈ 10.7 µM) | 0.78 (≈ 2.66 µM) | 
7 | Cc1cccc(Oc2c(Cl)nc3ncnn3c2Cl)c1 [Example 49] |  |  |  |  | MIC (Alternaria solani [5]): 25 µg/mL (≈ 84.7 µM); MIC (Botrytis cinerea [6]): 6.25 µg/mL (≈ 21.2 µM); MIC (Rhizoctonia solani): > 100 µg/mL
8 | FC(F)(F)c1ccc(-c2c(Br)nc3ncnn3c2Br)cc1 [Example 42] |  |  |  |  | MIC (Alternaria solani [2]): > 100 µg/mL; MIC (Botrytis cinerea [3]): > 100 µg/mL
9 | Clc1ccc(-c2c(Cl)nc3ncnn3c2Cl)cc1Cl [Example 25] |  |  |  |  | Fungicidal Activity LN (disease control rating) (Leptosphaeria nodorum): 1 (about 50-80% disease control); pest or weed control at 500 µg/mL (Puccinia arachidis): 42%; pest or weed control at 500 µg/mL (Cercospora arachidicola): 25%
10 | Clc1nc2ncnn2c(Cl)c1-c1cccc2ccccc12 [Example 23] | 1 (about 50-80% disease control) |  |  |  | 
11 | Fc1ccc(-c2c(Cl)nc3ncnn3c2Cl)cc1 [Example 11] | 2 (greater than 80% disease control) | 3.13 (≈ 11.1 µM) | 0.39 (≈ 1.38 µM) | 0.2 (≈ 0.706 µM) | pest or weed control at 500 µg/mL (Puccinia arachidis): 25%; pest or weed control at 500 µg/mL (Cercospora arachidicola): 33%
12 | CCOc1ccc(-c2c(Cl)nc3ncnn3c2Cl)cc1 [Example 3] |  | 6.25 (≈ 20.2 µM) | 0.78 (≈ 2.52 µM) | 0.2 (≈ 0.647 µM) | 
13 | FC(F)(F)Oc1ccc(-c2c(Cl)nc3ncnn3c2Cl)cc1 [Example 9] | 2 (greater than 80% disease control) | 12.5 (≈ 35.8 µM) | 0.78 (≈ 2.23 µM) | 0.1 (≈ 0.286 µM) | pest or weed control at 500 µg/mL (Puccinia arachidis): 25%; pest or weed control at 500 µg/mL (Cercospora arachidicola): 50%
14 | Clc1nc2ncnn2c(Cl)c1-c1ccc(OCc2ccccc2)cc1 [Example 15] |  |  |  |  | Fungicidal Activity LN (disease control rating) (Leptosphaeria nodorum): 1 (about 50-80% disease control)
15 | CCOc1c(Cl)nc2ncnn2c1Cl [Example 50] |  |  |  |  | MIC (Alternaria solani [5]): 12.5 µg/mL (≈ 53.6 µM); MIC (Botrytis cinerea [6]): 25 µg/mL (≈ 107 µM); MIC (Rhizoctonia solani): 100 µg/mL (≈ 429 µM)
16 | Clc1nc2ncnn2c(Cl)c1-c1ccc(Br)cc1 [Example 19] | 2 (greater than 80% disease control) | 12.5 (≈ 36.3 µM) | 6.25 (≈ 18.2 µM) | 0.1 (≈ 0.291 µM) | 
17 | CC(C)c1c(Cl)nc2ncnn2c1Cl [Example 51] |  |  |  |  | MIC (Alternaria solani [5]): 12.5 µg/mL (≈ 54.1 µM); MIC (Botrytis cinerea [6]): 12.5 µg/mL (≈ 54.1 µM); MIC (Rhizoctonia solani): 25 µg/mL (≈ 108 µM)
18 | Clc1ccccc1-c1c(Cl)nc2ncnn2c1Cl [Example 1, 5,7-dichloro-6-(2-chlorophenyl)-1,2,4-triazolo-[1,5a]pyrimidine] | 2 (greater than 80% disease control) | 25 (≈ 83.5 µM) | 1.56 (≈ 5.21 µM) | 3.13 (≈ 10.4 µM) | 
19 | Fc1cccc(-c2c(Cl)nc3ncnn3c2Cl)c1 [Example 17] | 2 (greater than 80% disease control) | 25 (≈ 88.3 µM) | 12.5 (≈ 44.2 µM) | 0.78 (≈ 2.76 µM) | 
20 | Fc1cccc(Cl)c1-c1c(Br)nc2ncnn2c1Br [Example 41] |  |  |  |  | MIC (Alternaria solani [2]): 50 µg/mL (≈ 123 µM); MIC (Botrytis cinerea [3]): 25 µg/mL (≈ 61.5 µM)
21 | Clc1nc2ncnn2c(Cl)c1-c1ccccc1Br [Example 18] | 2 (greater than 80% disease control) |  |  |  | 
22 | COc1ccc(-c2c(Cl)nc3ncnn3c2Cl)cc1 [Example 38] |  |  |  |  | pest or weed control at 500 µg/mL (Puccinia arachidis): 42%; pest or weed control at 500 µg/mL (Cercospora arachidicola): 42%
23 | FC(F)(F)c1cccc(-c2c(Cl)nc3ncnn3c2Cl)c1 [Example 7] | 2 (greater than 80% disease control) |  |  |  | pest or weed control at 500 µg/mL (Puccinia arachidis): 25%; pest or weed control at 500 µg/mL (Cercospora arachidicola): 58%
24 | Cc1cccc(C)c1Oc1c(Cl)nc2ncnn2c1Cl [Example 48] |  |  |  |  | MIC (Alternaria solani [5]): 25 µg/mL (≈ 80.9 µM); MIC (Botrytis cinerea [6]): > 100 µg/mL; MIC (Rhizoctonia solani): > 100 µg/mL
25 | FC(F)(F)c1ccccc1-c1c(Br)nc2ncnn2c1Br [Example 44] |  |  |  |  | MIC (Alternaria solani [2]): > 100 µg/mL; MIC (Botrytis cinerea [3]): > 100 µg/mL
26 | Fc1ccccc1-c1c(Cl)nc2ncnn2c1Cl [Example 16] | 2 (greater than 80% disease control) |  |  |  | pest or weed control at 500 µg/mL (Puccinia arachidis): 42%; pest or weed control at 500 µg/mL (Cercospora arachidicola): 50%
27 | Clc1nc2ncnn2c(Cl)c1-c1ccc(Oc2ccccc2)cc1 [Example 12] |  |  |  |  | pest or weed control at 500 µg/mL (Puccinia arachidis): 33%; pest or weed control at 500 µg/mL (Cercospora arachidicola): 67%
28 | COc1cccc(-c2c(Cl)nc3ncnn3c2Cl)c1OC [Example 21] | 2 (greater than 80% disease control) |  |  |  | 
29 | O=S(=O)(Cl)c1ccccc1-c1c(Cl)nc2ncnn2c1Cl [Example 6] |  |  |  |  | MIC (Botrytis cinerea [3]): > 100 µg/mL
30 | COc1ccc(-c2c(Cl)nc3ncnn3c2Cl)cc1OC [Example 14] | 2 (greater than 80% disease control) | 25 (≈ 76.9 µM) | 6.25 (≈ 19.2 µM) | 0.78 (≈ 2.4 µM) | 
